pEC50, pIC50: −log10 of the molar value. “Also recorded” adds a separate entry of the source. Where two headings read alike, the source gives them in different places.
How the values were obtained:
TRPV3 = settings: Activation, cited from earlier work
keratin 10 (K10) = assay: Western blot of keratin 10 in epidermal lysates after topical camphor; assay type: in vivo, FVB mice; settings: 5 days
Procedure: To determine whether topical camphor treatment promotes keratinocyte differentiation in vivo, a separate cohort of adult female FVB mice were treated twice daily for a period of 5 days with increasing concentrations of topical camphor (0, 15%, 20% or 30% (wt/wt) camphor in acetone; N=3-4 mice per group). One day after the final topical dose, mice were sacrificed and epidermal lysates were prepared for immunoblot analysis according to standard protocols (Owens et al., J. Invest. Dermatol. 1996). […] Protein levels were detected by peroxidase activated luminol exposure to X-ray film and estimated by densitometry using NIH-Image J software. Levels of K10 were normalized to levels of beta-tubulin for each sample; therefore, data are expressed as the ratio of K10 to beta-tubulin (K10/beta-tubulin). […]
To determine whether topical camphor treatment promotes keratinocyte differentiation in vivo, adult female FVB mice (n=3-4 per group) were treated twice daily for a period of 5 days with increasing concentrations of topical camphor (15%, 20% or 30% (wt/wt)) or vehicle only. […] It was determined that topical camphor treatment upregulates levels of a keratinocyte terminal differentiation marker in vivo.

TRPA1 = settings: Inhibition; read-out: Effective concentration IC50; cited from earlier work
[1] = cited from earlier work
[2] = tested on: normal human keratinocytes; assay: Keratinocyte cell counts (DAPI), morphology and EdU proliferation assay after 24 h treatment; settings: 24 hours
Procedure: (§1) Normal human keratinocytes were isolated from human foreskins by undergoing two enzymatic dissociation steps, first in dispase then in trypsin. Cells were cultured in EpiLife supplemented with human keratinocyte growth supplement (HKGS; Invitrogen). For all experiments with undifferentiated cells, keratinocytes were harvested or images at ˜75% confluency. Differentiation was induced by adding CaCl2 to the EpiLife media to reach a final [Ca2+] of 1.2 mM. Cells were typically cultured for 3 days under differentiation conditions before they were assayed. Keratinocytes were cultured for <5 passages. Purified Camphor (CAS #76-22-2), 2-APB (Tocris) or vehicle (1% EtOH)-containing media were used as indicated.
Cells were treated with 2-APB or camphor for 24 hours at 37° C., exposed to EdU for 45 min, fixed and stained with DAPI for cell counting. EdU Click-It assays (Invitrogen) were used to assess cell-cycle entry. The cells were then fixed and stained with DAPI. Three fields per well were assayed via a 20× objective and there were 4 wells per treatment in each experiment. EdU=5-ethynyl-2′-deoxyuridine.
As Ca^2+ triggers the commitment switch from proliferation to differentiation in keratinocytes, it was reasoned that increasing intracellular calcium by incubating keratinocytes in TRP agonists might be sufficient to induce this cell-fate switch in low-calcium growth media. To test this hypothesis, normal human keratinocytes were cultured for 24 hours under low-Ca^2+ conditions in the presence of low (12.5 μM), half-maximal (50 μM) and saturating (100 μM) concentrations of 2-APB (FIG. 3A) or camphor (0-8 mM) (FIG. 3E). These TRP agonists were chosen because they reliably elicited intracellular calcium signaling in normal human keratinocytes (FIG. 1A-1E).
As camphor can activate both TRPV3 and TRPV1 channels, these experiments were repeated in the presence of a specific TRPV1 antagonist, AMG-9810 (Gavva et al., 2005).

[3] = tested on: normal human epidermal keratinocytes; assay: Ratiometric fura-2 live-cell calcium imaging of keratinocytes; assay type: cell-based; settings: for % Responders (differentiated) Mean ± SEM: differentiated in 1.2 mM Ca2+, 4αPDD 3 μM, camphor 10 mM, 2-APB 100 μM; for % Responders (differentiated) Mean ± SEM / % Responders (undifferentiated) Mean ± SEM or SD: responders F340:F380 increase ≧20%; for % Responders (undifferentiated) Mean ± SEM or SD: saturating agonist (4αPDD 3 μM, camphor 10 mM, 2-APB 100 μM, capsaicin 1 μM, mustard oil 300 μM), SD for capsaicin and mustard oil
Procedure: as §1
(§2) Human keratinocytes and SCC cells were washed in Ringer's solution (in mM: NaCl 140, KCl 5, D-glucose 10, HEPES 10, CaCl2 2, MgCl2 2, pH 7.2) and loaded with 5 μM fura-2AM and 1 μM pluronic (Invitrogen) for 30 minutes in the dark. During live-cell imaging, saturating concentrations of TRP agonists (10 mM Camphor, 100 μM 2-APB 1 μM Capsaicin, 300 μM Mustard oil or 3 μM 4αPDD) in Ringer's were used. Cells were imaged for 20 s to establish a baseline and then acutely treated with each agonist for 60 seconds. Imaging was performed on an Olympus IX81 microscope with a 20× (NA 0.17) objective and a Hamamatsu ORCA-R2 camera. 340- and 380-nm excitation and 540-nm emission filters were used to capture fura-2 fluorescence. Data are expressed as a ratio of fluorescent signals (340/380). All data acquisition was performed in MetaFluor. Data analysis was performed with custom algorithms in IgorPro. Cells with baseline levels ±2 SD above the mean were excluded from analysis as unhealthy. Responders were designated as cells whose 340/380 ratio was ≧20% above baseline.
TRP channels are selectively activated by endogenous and exogenous ligands at micromolar to millimolar concentrations. Since TRP channel activity increases over this range to allow graded Ca^2+ influx, receptor activity levels can be monitored by live-cell Ca^2+ imaging. A ratiometric calcium indicator (Fura-2) was employed to determine whether a panel of TRP-channel agonists elicited cytoplasmic calcium increases in human epidermal keratinocytes. (FIG. 1A-1E, FIG. 2A-2B, and Table 3).
Normal human keratinocytes were cultured in low-calcium media to promote proliferation or in 1.2-mM calcium media to induce differentiation. For live-cell imaging, keratinocytes were then washed and bathed in Ringer's solution containing 2 mM calcium so that calcium signals could be directly compared between cell populations.
In keratinocytes, increased intracellular calcium stimulates the terminal differentiation process. To determine whether camphor oil and its abundant constituents are directly bioactive on epithelial keratinocytes, a ratiometric Ca2+ indictor (Fura-2) was employed to test whether a panel of terpenes elicited cytoplasmic Ca2+ increases in undifferentiated human epidermal keratinocytes (FIG. 19A-19C). Keratinocytes were cultured according to our standard methods. For live-cell imaging, keratinocytes were bathed in Ringer's solution containing 2 mM Ca2+.

SCC-13 cells [4] = assay: Live-cell calcium imaging of SCC cell line SCC-13; assay type: cell-based, human; settings: 10 mM camphor; compared with proliferating keratinocytes
Procedure: as §2
(§3) Moreover, their responses to camphor mirror their respective levels of TRP channel expression.

[5] = cited from earlier work; remark: listed apart in the source
[6] = cited from earlier work; remark: listed apart in the source
SCC-39 cells [7] = assay: Live-cell calcium imaging of SCC cell line SCC-39; assay type: cell-based, human; settings: 10 mM camphor; compared with SCC-13 cells
Procedure: as §2, §3

TRPV1 = TRPV1 (Rattus norvegicus, UniProt O35433); settings: Activation; cited from earlier work
Sequence of TRPV1 (O35433 whole entry): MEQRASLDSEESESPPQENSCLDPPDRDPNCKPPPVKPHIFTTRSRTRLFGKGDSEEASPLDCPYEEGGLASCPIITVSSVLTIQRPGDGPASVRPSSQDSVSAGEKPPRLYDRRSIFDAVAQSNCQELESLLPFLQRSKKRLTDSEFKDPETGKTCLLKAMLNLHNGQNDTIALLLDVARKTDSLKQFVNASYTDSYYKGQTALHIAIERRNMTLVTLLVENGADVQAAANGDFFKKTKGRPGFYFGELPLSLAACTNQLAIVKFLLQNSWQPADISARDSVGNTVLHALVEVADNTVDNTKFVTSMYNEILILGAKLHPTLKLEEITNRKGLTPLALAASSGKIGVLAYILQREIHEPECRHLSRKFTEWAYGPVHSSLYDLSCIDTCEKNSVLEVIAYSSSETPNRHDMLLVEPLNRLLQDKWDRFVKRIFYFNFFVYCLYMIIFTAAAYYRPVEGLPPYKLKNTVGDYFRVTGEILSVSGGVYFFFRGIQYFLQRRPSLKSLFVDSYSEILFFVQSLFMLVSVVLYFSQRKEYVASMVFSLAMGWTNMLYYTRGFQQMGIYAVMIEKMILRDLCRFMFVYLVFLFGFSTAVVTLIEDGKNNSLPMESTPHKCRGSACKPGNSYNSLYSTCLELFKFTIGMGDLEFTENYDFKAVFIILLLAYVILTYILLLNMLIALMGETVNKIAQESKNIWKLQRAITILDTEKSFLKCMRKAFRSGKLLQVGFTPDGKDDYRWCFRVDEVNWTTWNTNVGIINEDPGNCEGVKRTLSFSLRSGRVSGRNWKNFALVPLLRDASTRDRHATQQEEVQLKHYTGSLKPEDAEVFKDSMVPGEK

ORAI1 = ORAI1 (Homo sapiens, UniProt Q96D31); settings: Inhibition; cited from earlier work
Sequence of ORAI1 (Q96D31 whole entry, species assumed): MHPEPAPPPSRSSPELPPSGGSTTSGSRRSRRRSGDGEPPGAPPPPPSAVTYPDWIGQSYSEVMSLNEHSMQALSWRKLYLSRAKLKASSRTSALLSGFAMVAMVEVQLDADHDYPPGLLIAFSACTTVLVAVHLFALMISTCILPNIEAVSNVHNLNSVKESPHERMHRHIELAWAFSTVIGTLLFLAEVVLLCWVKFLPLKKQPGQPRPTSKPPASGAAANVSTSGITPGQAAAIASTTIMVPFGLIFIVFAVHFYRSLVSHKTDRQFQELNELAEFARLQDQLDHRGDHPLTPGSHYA

TRPC1 = TRPC1 (Homo sapiens, UniProt P48995); settings: cited from earlier work
Sequence of TRPC1 (P48995 whole entry, species assumed): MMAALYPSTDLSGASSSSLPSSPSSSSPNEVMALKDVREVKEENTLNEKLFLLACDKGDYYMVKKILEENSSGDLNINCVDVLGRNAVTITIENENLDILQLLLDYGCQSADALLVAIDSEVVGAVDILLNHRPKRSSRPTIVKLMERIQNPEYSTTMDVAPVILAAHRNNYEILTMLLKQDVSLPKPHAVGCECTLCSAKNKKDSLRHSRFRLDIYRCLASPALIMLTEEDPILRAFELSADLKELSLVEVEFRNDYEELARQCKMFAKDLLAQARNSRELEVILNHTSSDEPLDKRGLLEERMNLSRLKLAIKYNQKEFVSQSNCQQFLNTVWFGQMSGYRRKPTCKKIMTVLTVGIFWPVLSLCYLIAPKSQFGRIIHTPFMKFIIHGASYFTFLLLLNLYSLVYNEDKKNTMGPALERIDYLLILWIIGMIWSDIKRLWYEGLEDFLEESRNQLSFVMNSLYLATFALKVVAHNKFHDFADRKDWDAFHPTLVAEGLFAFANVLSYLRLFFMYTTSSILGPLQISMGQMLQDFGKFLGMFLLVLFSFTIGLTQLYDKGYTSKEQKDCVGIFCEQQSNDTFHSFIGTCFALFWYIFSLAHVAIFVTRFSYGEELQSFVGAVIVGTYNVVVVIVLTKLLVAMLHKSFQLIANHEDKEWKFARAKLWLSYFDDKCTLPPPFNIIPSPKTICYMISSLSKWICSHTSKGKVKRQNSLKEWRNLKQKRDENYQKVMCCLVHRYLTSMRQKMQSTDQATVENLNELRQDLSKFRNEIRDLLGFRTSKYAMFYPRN

SCC-39 cells [8] = settings: 50 μM, 14 days
Procedure: (§4) Organotypic human skin cultures and primary SCC lines were isolated from human SCCs and cultured as previously described (Bachelor et al., 2011). In brief, human fibroblasts were seeded in a collagen matrix on a 70 μm filter insert and incubated at 37° C. for 5-7 days. Human keratinocytes or SCC cells were then seeded on the apical surface of the fibroblast-collagen matrix and cultured for 2 days submerged in media to allow monolayer formation. The media was then removed from the apical surface (raising), exposing the keratinocytes or SCC cells to air. The cultures were maintained in this fashion for up to 14 days, and the media to the fibroblasts below was changed every 2-3 days. At the time of raising, 50 μM 2-APB or vehicle (1% EtOH) was added to the media.
(§5) Sections were fixed in 4% paraformaldehyde, paraffin embedded and sectioned at 8 μm. Hematoxylin and Eosin (H&E) stained sections were imaged with a bright field microscope equipped with a 10× (0.3 NA) and 20× (0.4 NA) objectives and an Axiocam color CCD camera (Zeiss AxioObserver.Z1). Epidermal thickness was assessed by measuring the nucleated layers with ImageJ software (NIH ImageJ). Number of invading cells was determined by counting the number of round nuclei below the basement membrane per 10× field (fibroblast nuclei are flatten and were excluded). Four non-serial paraffin sections per experiment were examined. Six random frames per section were quantified.
(§6) As TRP-channels are expressed in human SCC keratinocytes and TRP agonists arrest keratinocyte proliferation, it was reasoned that TRP agonists might be candidates for SCC-targeted therapy. To test this notion, organotypic human skin cultures were seeded with SCC cells.

SCC-13 cells [9] = settings: 50 μM, 14 days
Procedure: as §4, §5, §6

SCC-73 cells = settings: 50 μM, 14 days
Procedure: as §4, §5, §6

[10] = tested on: keratinocyte differentiation genes (LOR, FLG, IVL, TGM3); settings: 50 μM, 24 hours
Description: RNA was isolated using RNeasy Kit (Qiagen) and reversed transcribed. Four technical replicates were run for each primer set and cDNA sample using SYBR Green (Applied Biosystems) for quantitative readout. Complementary DNA was synthesized with oligo-dT primers and SuperScript III (Invitrogen). Primers were generated in Primer3. Primer pairs were optimized for qPCR and validated in control specimens. […] Melting curves were generated for all products to confirm a single amplicon for each product. To determine gene expression in each sample, cycle thresholds (CT) of the gene of interest were normalized to the reference gene GAPDH (ΔCT). Fold change was determined using the ΔΔCT method where vehicle or growth conditions were used as the calibrator (ΔΔCT=[(CT(target gene)−CT(reference gene)]−[CT(calibrator)]−CT(reference gene)]. All gene amplifications were performed in quadruplicate.

human keratinocytes = settings: 50 μM, 7 days
Procedure: as §4
as §5, with “Four non-serial paraffin sections per experiment were examined.” left out

skin tumors = settings: mouse, in vivo; cited from earlier work
DNA = settings: cited from earlier work

## CC12CCC(CC1=O)C2(C)C (racemic) [Camphor, 1,7,7 Trimethylbicyclo[2.2.1]heptan-2-one]
TRPV3
  Effective concentration Range: Range = 2-10 mM
Keratin 10 (K10); 15%, 20% or 30% (wt/wt) topical twice daily
  expression of K10: increased with camphor treatment in a dose-dependent manner; also recorded: upregulates
Keratin 10 (K10); 30% (wt/wt) topical twice daily
  K10 protein levels (K10/beta-tubulin) versus lower concentrations or vehicle: significantly higher
TRPA1
  pIC50: 4.17
[1]
  solubility in water: slightly soluble
[2]
  concentration that arrests proliferation without inducing necrotic changes: 4 to 8 mM
[3]; 10 mM camphor
  proportion of cells showing Ca2+ increases, differentiated versus proliferating keratinocytes: 5.7 fold
[3]
  % Responders (differentiated) Mean ± SEM: 37.5 ± 15.7%
[3]; differentiated keratinocytes
  magnitude of camphor-evoked responses, increase over baseline: 78±1%
[3]; growth conditions
  magnitude of camphor-evoked responses, increase over baseline: 55±1%
  % Responders (undifferentiated) Mean ± SEM or SD: 6.5 ± 2.8%
SCC-13 cells [4]
  camphor-evoked cytoplasmic calcium signals: increased
[5]; after inhalation or dermal exposure (Baselt and Cravey 1990)
  absorption: well absorbed
[5]; low-dose (46.80 mg) dermal application (Martin et al. 2004)
  plasma concentrations: low plasma concentrations
[6]; 20% solution in alcohol, normal skin temperatures (Green 1990)
  sensation on skin of volunteers: no significant sensation of irritation or pain
[6]; in vivo
  doses reported to cause skin irritation as well as toxicity when ingested: > 20%
SCC-39 cells [7]
  camphor-evoked calcium responses: significantly fewer
TRPV1
  Effective concentration Range: Range = 1-10 mM

## NCCOB(c1ccccc1)c1ccccc1 [2-APB, 2-aminoethoxydiphenyl borate]
TRPV3
  Effective concentration Range: Range = 3.2-320 μM
TRPV3; read-out: Effective concentration EC50
  pEC50: 4.55
ORAI1
  Effective concentration Range: Range = 5-50 μM
TRPC1; Activation
  Effective concentration Range: Range = 5-10 μM
TRPC1; Inhibition
  Effective concentration Range: Range = 50-100 μM
[2]; 12.5 μM
  EdU incorporation: significant increased
[2]; 12.5 μM, low-Ca2+, one set of primary keratinocytes
  cell population compared with vehicle-treated controls: 325+/−5%
[2]; 50 μM
  EdU incorporation (cell-cycle arrest): completely inhibited
  cell number: slight reduction
[2]; 100 μM
  keratinocyte morphology and cell numbers (cytotoxicity): necrotic morphological changes and a loss of cell numbers
[2]; 12.5 or 50 μM
  keratinocyte morphology: indistinguishable from vehicle-treated cells
[2]
  concentration that arrests proliferation without inducing necrotic changes: 0.05 mM
SCC-39 cells [8]
  inhibition of cell invasion versus vehicle-treated cultures: > 93%
  reduction of tumor formation above the dermis: > 37%
  tumor thickness: reduced tumor thickness
SCC-13 cells [9]
  reduction of tumor formation above the dermis: > 37%
  tumor thickness: reduced tumor thickness
SCC-73 cells
  invasive nature and growth of tumor cells: dramatically reduced
  tumor thickness: reduced tumor thickness
[3]
  % Responders (differentiated) Mean ± SEM: 13.0 ± 7.2%
[3]; growth conditions
  % Responders (undifferentiated) Mean ± SEM or SD: 2.5 ± 0.9%
[10]
  involucrin (IVL) expression: little change
  transglutaminase 3 (TGM3) expression: little change
[10]; low-calcium growth media
  FLG transcript level induction versus vehicle: more than 15 fold
  LOR transcript level induction versus vehicle: more than 15 fold
Human keratinocytes
  nucleated epidermal layers: one-third reduction

## Nc1ccc(C(=O)O)cc1 [p-Aminobenzoic acid]
Skin tumors
  Results of safety: against skin tumors in mice: Protects
DNA
  Results of safety: DNA defects: increase

— patent US20160051493A1, “METHODS OF TREATMENT OF KERATINOCYTE-DERIVED LESIONS” (THE TRUSTEES OF COLUMBIA UNIVERSITY IN THE CITY OF NEW YORK, priority 2012, published 2016)
